Assay results published in patent publication US20230248670A1, “APPLICATION OF PREPARATION FOR INHIBITING CAMK2G EXPRESSION IN PREPARATION OF MEDICINE FOR TREATING PSORIASIS” (priority 2022, published 2023).

Key:
[1] = test system: Jurkat cells; experiment: Proinflammatory cytokine production in PMA/ionomycin co-stimulated Jurkat cells; format: cell-based, human; details: co-stimulation with PMA and ionomycin
Excerpt: In the embodiments of the disclosure, “Phorbol 12-myristate 13-acetate (PMA)” and “ionomycin (Ion)” are used to activate Jurkat cells, and only activated Jurkat cells can highly express inflammatory factors.
In the embodiment of the disclosure, in order to in order to study how ADRB2 regulates the inflammatory response of γδ T cells, Jurkat cells (a kind of immortal human T lymphocytes) are stimulated with ADRB2 agonist SAL and antagonist ICI 118551 respectively.

[2] = test system: IMQ-induced psoriasis mice; experiment: IMQ-induced psoriasis mouse model with subcutaneous injection of NE, SAL or ICI; format: in vivo; details: for activation of p38 in IMQ-induced skin: SAL or ICI treatment, mouse skin; for IMQ-induced psoriasis-like phenotype (dorsal skin thickness, erythema, scaling) / proportion of IL-17A+ γδ T cells (γδ T-17 cells) in mouse skin: subcutaneous injection; for IMQ-induced psoriasis-like phenotype (dorsal skin thickness, erythema, scaling): IMQ-induced mice, vs control group; for proportion of IL-17A+ γδ T cells (γδ T-17 cells) in mouse skin: IMQ-induced mouse skin, flow cytometry
Description: In the embodiment of the disclosure, establishment steps of IMQ-induced Camk2g^-/- psoriasis mouse model include steps as follows. 7-week-old wild type mice (WT) (n = 5) or Camk2g^-/- mice (n = 5) are taken to shave back hair, and the exposed skin area is 2 centimeters (cm) × 2 cm, […] (mg) of IMQ cream or control agent Vaseline (VAS) are evenly applied to the exposed skin of mice for 4 consecutive days, psoriasis area severity index (PASI) score is performed every day, and the mice are sacrificed on the 5th day to take the skin, spleen and blood for testing.
In the embodiment of the disclosure, the skin tissue is fixed with 10% formalin, embedded in paraffin, cut into 4 micrometers (µm) sections for hematoxylin and eosin (H&E) staining.
In the embodiment of the disclosure, the inflammation scoring method of the mouse model is an objective scoring system developed on the basis of clinical PASI score. Scores of erythema, scaling and thickening ranged from 0 to 4:0: none; 1: mild, 2: moderate, 3: obvious, and 4: very significant. The degree of erythema is scored using a scoring scaling based on erythema intensity. A cumulative score (i.e., erythema + scaling + thickening) can be used as an indicator of the severity of inflammation (the cumulative score is in a range of 0-12).
In the embodiment of the disclosure, separation steps of skin immunocytes include steps as follows. the skin is fully chopped and then digested in digestive enzymes at 37° C. and 225 revolutions per minute (rpm) for 1.5 hours to thereby obtain an initial digestion solution. The digestive enzymes are formulated as follows: 1.2 grams (g) bovine serum albumin (BSA) (Biofoxx, 4240GR100), 0.12 g type I collagenase (Sigma, C0130-5G), 0.06 g type IV collagenase (Worthington, LS004189) and 0.06 g hyaluronidase (Sigma, H3506) -5G) are dissolved in 30 milliliters (mL) dulbecco’s modified eagle medium (DMEM) (HyClone, SH30022.01). 150 microliters (µL) of 1 microgram per milliliter (mg/mL) deoxyribonuclease (DNase) (Yuanye, S10073) is added in the initial digestion solution and the digestion is continued for 30 minutes to obtain a first cell suspension. After the digestion, the first cell suspension is filtered through a 70-µm filter. The filtered first cell suspension is centrifuged at 4° C. and 2000 rpm for 8 minutes, and first cell particles are collected after removing a first supernatant. The first cell particles are suspended in 6 mL of 40% lymphocyte isolation solution (5.4 mL Percoll (GE Healthcare, 17-0891-09) +520 µL Hank’s Solution (Beyotime, C0219) +44 µL 2×Hepes Buffer (Solarbio, H1080-100) +[…] phosphate-buffered saline (PBS)) of a centrifuge tube. Then, 6 mL of 80% lymphocyte isolation solution (5.4 mL Percoll+520 µL Hank’s Solution+44 µL 2×Hepes Buffer+1.491 mL PBS) is slowly added to the tube wall to obtain a first mixed solution, and the first mixed solution is clearly separated into two layers. The first mixed solution is centrifuged at 4° C. and 2000 rpm for 20 minutes, and the centrifugal lifting force is kept to a minimum. The liquid in the centrifuge tube after centrifugation can be divided into four layers. From top to bottom of the centrifuge tube, there are 40% lymphocyte isolation solution, lymphocytes, 80% lymphocyte isolation solution and cell fragments. Lymphocytes are carefully transferred into a new centrifuge tube and thoroughly washed with 10 mL PBS to obtain a second mixed solution. The second mixed solution is centrifuged at 4° C. and 2000 rpm for 8 minutes to obtain a second cell suspension, and second cell particles are collected after removing a second supernatant. Then, 1 µL of each cell membrane surface antibody is added to 50 µL of PBS, mixed with the second cell particles, and incubated at room temperature for 30 minutes in the dark. […]

[3] = test system: γδ T cell deficient-mice (Tcrd^-/-); experiment: SAL subcutaneous injection in γδ T cell deficient-mice (Tcrd-/-); format: in vivo, mouse
Excerpt: SAL has no effect on the ability of αβ T cells to produce IL-17 (FIG. 50). Combined with the previous results, NE in the skin mainly derives from the skin sympathetic nerves and mediates the release of IL-17 from γδ T cells instead of αβ T cells through the NE-ADRB2 signaling pathway.

[4] = test system: Jurkat T cells; experiment: MAPK (p38, ERK, JNK) activation in PMA/ionomycin activated Jurkat T cells; format: cell-based, human; details: Jurkat T cells activated by PMA/ionomycin for 2 hours, treatment for 4 hours
Excerpt: This is consistent with the existing literature that p38 phosphorylation promotes the proliferation of Th17 cells in autoimmune arthritis. P38 MAPK signaling pathway plays a role in the activation and differentiation of T cells in the peripheral blood immune system.

[5] = test system: IMQ-induced mice; details: intraperitoneal injection; cited from earlier work
[6] = test system: skin sympathetic nerves of IMQ-induced mice; experiment: Local skin sympathectomy by intradermal 6-OHDA before IMQ treatment; format: in vivo, mouse
Description: In an embodiment of the disclosure, in order to observe the effect of local sympathectomy on psoriasis mice, mice are injected with 6-OHDA intradermally before IMQ treatment (FIG. 25).

[7] = test system: SH-SY5Y cells; experiment: 6-OHDA induced SH-SY5Y cell injury (qPCR, western blot); format: cell-based, human
Excerpt: In an embodiment of the disclosure, to further study whether CAMK2γ directly affects the expression of TH in sympathetic nerves, RNA interference (RNAi) method is used to knock down CAMK2G in human neuroblastoma cell (SH-SY5Y). SH-SY5Y is a poorly differentiated tumor cell with high similarity in morphology, physiology and biochemical function to dopaminergic neurons in real-time in vivo, and can constitutively express TH.

[8] = test system: PMA-activated HL-60 cells; experiment: NETs protein release in PMA-activated HL-60 cells; format: cell-based
Excerpt: The existing literature discloses that although T cells producing IL-17 have long been the mainstream of psoriasis immunology research, neutrophils, as the largest number of cells in the innate immune system, have attracted much attention in the occurrence and development of psoriasis. Activated neutrophils produce enhanced respiratory burst, accompanied by the production of reactive oxygen species (ROS), ultimately leading to the development of NETosis. NETosis is a form of neutrophil death different from apoptosis and necrosis. NETosis is accompanied by the formation of NETs. NETs release proteases such as myeloperoxidase (MPO), neutrophil elastase (NE) and peptidyl arginine deiminase 4 (PAD4), which are involved in the hydrolysis and activation of inflammatory mediators and the formation of NETs of psoriasis autoantigens. HL60 is a bone marrow cell line with the potential to differentiate into neutrophils stimulated by dimethyl sulfoxide (DMSO). CAMK2γ is the member of CAMK family with the highest expression level and activity in HL-60 cells.
In the embodiment of the disclosure, in order to study whether CAMK2γ is involved in the formation of NETs in activated neutrophils, two kinds of CaMKII inhibitors, CaMKII-IN1 and KN93, are used.

[9] = test system: IMQ-induced psoriasis mice; experiment: IMQ-induced psoriasis mouse model with subcutaneous injection of NE, SAL or ICI; format: in vivo; details: after injection of NE
[10] = intradermal 6-OHDA, sympathetic denervated skin

OCc1cc(C(O)CNCCCCCCOCCCCc2ccccc2)ccc1O (stereo not drawn) [SAL, salmeterol xinafoate]
production of T-cell proinflammatory cytokines IL-17A, TNF-α and IL-22 [1]: increase the production of T-cell proinflammatory cytokines IL-17A, TNF-α and IL-22
activation of p38 in IMQ-induced skin [2]: enhanced the activation of p38
IMQ-induced psoriasis-like phenotype (dorsal skin thickness, erythema, scaling) [2]: psoriasis phenotype of mice injected with SAL increased
proportion of IL-17A+ γδ T cells (γδ T-17 cells) in mouse skin [2]: promotes IL-17A production by γδ T cells
ability of αβ T cells to produce IL-17 [3]: no effect
psoriasis phenotype and inflammatory infiltration [3]: promotion of psoriasis phenotype and inflammatory infiltration by SAL is counteracted by the lack of γδ T cells
p38 phosphorylation [4]: significantly increased

NCCc1cc(O)c(O)cc1O [6-OHDA, 6-hydroxydopamine]
IMQ-induced ear swelling [5]: can reduce IMQ-induced ear swelling
production of IL-17 [5]: does not affect the production of IL-17
TH and pTH in skin ([6]; intradermal 6-OHDA before IMQ, immunofluorescence and western blot): significant reduction of TH and pTH
IMQ-induced psoriasis-like phenotype ([6]; intradermal 6-OHDA, skin sympathetic denervation): reduces IMQ-induced psoriasis-like phenotype in mice
IL-17A+ γδ T cells in skin [6, 10]: IL-17A+ γδ T cells are reduced
NE in skin [6, 10]: reduction of NE
CAMK2G expression ([7]; qPCR): no significant effect on CAMK2G expression
intracellular TH transcription level ([7]; qPCR): decrease of intracellular TH transcription level
phosphorylation levels of other members of the CaMKII family ([7]; western blot): may lead to increased phosphorylation levels of other members of the CaMKII family
total protein level and pTH level of CAMK2γ ([7]; western blot): reduces the total protein level and pTH level of CAMK2γ

Cc1c(Cl)cccc1S(=O)(=O)Nc1nc(NCCc2ccccc2)nc2c1CN(Cc1ccccc1)CC2 [CaMKII-IN1]
release of MPO, elastase and PAD4 [8]: inhibits the release of MPO, elastase and PAD4

NC[C@H](O)c1ccc(O)c(O)c1 [NE, norepinephrine]
difference in skin thickness between WT and Camk2g-/- mice [9]: disappeared
IL-17A+ γδ T cells in CAMK2G-deleted mice ([2]; NE administration, IMQ-induced Camk2g-/- mice): counteracts the decrease of IL-17A+ γδ T cells caused by CAMK2G deletion
p38 phosphorylation in skin of Camk2g-/- mice ([2]; NE injection, compared to IMQ-treated WT mice): increases and restores p38 phosphorylation
IMQ-induced psoriasis-like phenotype (dorsal skin thickness, erythema, scaling) [2]: aggravates the IMQ-induced psoriasis-like phenotype
proportion of IL-17A+ γδ T cells (γδ T-17 cells) in mouse skin [2]: increases a proportion of IL-17A+ γδ T cells in mouse skin

COc1ccc(S(=O)(=O)N(CCO)c2ccccc2CN(C)C/C=C/c2ccc(Cl)cc2)cc1 [KN93]
release of MPO, elastase and PAD4 [8]: inhibits the release of MPO, elastase and PAD4

CC(C)Cn1cnc2c(N)nc3ccccc3c21 [IMQ, imiquimod]
p38 phosphorylation in mouse skin ([2]; IMQ treatment): p38 phosphorylation is activated by IMQ
proportion of β2-AR+ T cells in mouse skin ([2]; IMQ treatment): increases a proportion of β2-AR+ T cells in mouse skin
TH phosphorylation in mouse skin ([2]; IMQ treatment, western blot): significant upregulation of TH phosphorylation

Cc1ccc(OCC(O)C(C)NC(C)C)c2c1CCC2 (stereo not drawn) [ICI, ICI 118551]
production of T-cell proinflammatory cytokines IL-17A, TNF-α and IL-22 [1]: reduces the production of the T-cell proinflammatory cytokines
activation of p38 in IMQ-induced skin [2]: showed inhibitory effect
IMQ-induced psoriasis-like phenotype (dorsal skin thickness, erythema, scaling) [2]: psoriasis phenotype of mice injected with ICI is reduced
proportion of IL-17A+ γδ T cells (γδ T-17 cells) in mouse skin [2]: reduces a proportion of skin γδ T-17 cells
activation of ERK and JNK [4]: does not affect the activation
p38 phosphorylation [4]: inhibited
